Assay results reported in patent publication US6673839B1, “Pharmaceutical compositions with antitumour activity” (Universita' Degli Studi di Catania, priority 1998, dated 2004).
Where a name gives a salt, the structure may show the parent alone.

What was measured:
[1] = system: cells from 4 primitive epidermoid carcinomas of the larynx and 1 primitive undifferentiated carcinoma of the nasopharynx; assay: Effects of L-aC on cell cycle of cultured primitive human tumour cells (cytofluorimetric analysis); type: cell-based
Protocol: The effects of L-aC on cells from 4 primitive epidermoid carcinomas of the larynx and 1 primitive undifferentiated carcinoma of the nasopharynx were tested.
Tissue fragments from the tumour mass were mechanically dissociated in Hank's solutions adding an antibiotic and an antifungal to obtain a cell monosuspension free of agglomerates. The resulting suspension was centrifuged at 1200 rpm for 5 m′ and the pellet was resuspended in MEM culture medium supplemented with 10% of patient serum, to obtain a concentration of 2−3×10^4 cells/ml of medium. 1 ml Samples were prepared from the suspension, in amounts equivalent to the number of the concentrations to be assayed (0.2-20 mg/ml) as well as a control sample.
The suspensions were exposed to the medicament in Dubnoff bath at 37° C. for 24 h, then centrifuged and resuspended in 1 ml of fixing solution (tris buffer+methanol (1:3)) for 30 minutes and finally stained with 0.5% propyl iodide with simultaneous treatment with RNase.
Cytofluorimetric analysis in order to evaluate the percentage distribution of the cell cycle phases, was performed by an Ortho Diagnostic Spectrum III cytofluorigraph, equipped with Graphic Method computerized program.
The evaluation of the cell sensitivity to the medicament was based on the extent of the perturbations induced by L-aC on the cell cycle.

[2] = system: Yoshida ascitogenic tumour; assay: Sprague-Dowley rats inoculated with Yoshida ascitogenic tumour, treatment; type: in vivo; design: surviving animals (mortality curve): unit not given here
Protocol: Yoshida tumour is a transplantable, ascitogenic experimental tumour consisting of histiocyte-like immortalized cells.
The tumour causes, on the average 7 days after the intraperitoneal inoculation in Sprague-Dowley rat, the formation of 120-150 ml of ascites which reappears 3-4 days after complete emptying of the peritoneal cavity and induces death of all the animals within 14-16 days after inoculation.
300 Sprague-Dowley rats (4 months old, mean weight: 200 g), under standard feeding and temperature conditions (25° C.), were inoculated with Yoshida tumour. The onset and evolution of the tumour were checked by daily observation and weighing. One week after the inoculation of the tumour, rats were divided in 6 groups and treated as follows:
Group 1: 50 rats were subjected, on day 8 to 14, to daily emptying of 5 ml of ascitic fluid which was substituted with 5 ml of saline solution;
Group 2: 50 rats were subjected, on day 8 to 14, to daily emptying of 5 ml of ascitic fluid which was substituted with 50 mg of L-aC diluted in 5 ml of saline solution;
Group 3: 25 rats were subjected, on day 8 to 14, to daily emptying of 5 ml of ascitic fluid which was substituted with 80 mg of L-aC diluted in 5 ml of saline solution;
Group 4: 25 rats were subjected, on day 8 to 14, to daily emptying of 5 ml of ascitic fluid which was substituted with 120 mg of L-aC diluted in 5 ml of saline solution;
Group 5: 100 rats were subjected, on day 8 to 14, to evacuation on alternate days of 5 ml of ascitic fluid which was substituted with 25 mg of L-aC diluted in 5 ml of saline solution;
Group 6: 50 rats were used as control and received no treatment.

Yoshida tumour = assay: Survived rats reinoculated with Yoshida tumour; type: in vivo, Sprague-Dowley rats
Protocol: 20 survivors rats previously transplanted with Yoshida tumour and subjected to the treatment on alternate days with 25 mg of L-aC diluted in 5 ml of saline solution […], were reinoculated with the tumour, at the end of the 6 week observation period.

[3] = system: multirecurrent urinary bladder neoplasia; assay: Patients with urinary bladder multirecurrent neoplasia treated orally; type: in vivo, human
Source text: 10 patients, 8 males and 2 females, of age from 55 to 75 years, all affected with multirecurrent urinary bladder neoplasia, at stages ranging from pT1G1NxMx and pT2G3NxMx, were orally treated with L-aC, at a standard dosage of 2 g/day, for a time from 10 to 12 months. They were then subjected to follow-up ranging from 6 to 22 months.
Before treatment with L-aC, patients had undergone an individual number of endoscopic resections (Turb), varying from 6 to 19 and in 1 case partial cystectomy with ureterocystoneostomy had been performed.
In all patients, treatment with L-aC started immediately after endoscopic resection.
Patients were subjected to quarterly endoscopic verification for the first year from the beginning of the treatment.
After 4 negative quarterly controls, the endoscopic control was performed every six months for a duration of 2 years.

## CC(=O)OC(CC(=O)[O-])C[N+](C)(C)C [L-aC, L-acetylcarnitine hydrochloride]
[1]; 0.2 mg/ml, 24 h, all samples
  increase in the percentage of S phase cells compared with the control: about 10%
[1]; 20 mg/ml, 24 h
  effect on cell cycle: block in the percentage of the cells in G1 phase
[1]; 20 mg/ml, tumour with pre-treatment ratio 31/69
  G1/S+G2M ratio after the treatment: 70/30
[2]; 6 animals sacrified at end of observation
  necroscopy finding: no presence of the disease
[2]; 47 Group 5 survivors treated a further 2 weeks
  animals died during further treatment: 21
[2]; Group 2, 50 mg lac i.p. daily day 8-14, day 0 transplant
  surviving animals (mortality curve): 50
[2]; Group 2, 50 mg lac i.p. daily day 8-14, day 1
  surviving animals (mortality curve): 50
[2]; Group 2, 50 mg lac i.p. daily day 8-14, day 2
  surviving animals (mortality curve): 50
[2]; Group 2, 50 mg lac i.p. daily day 8-14, day 3
  surviving animals (mortality curve): 50
[2]; Group 2, 50 mg lac i.p. daily day 8-14, day 4
  surviving animals (mortality curve): 50
[2]; Group 2, 50 mg lac i.p. daily day 8-14, day 5
  surviving animals (mortality curve): 50
[2]; Group 2, 50 mg lac i.p. daily day 8-14, day 6
  surviving animals (mortality curve): 50
[2]; Group 2, 50 mg lac i.p. daily day 8-14, day 7
  surviving animals (mortality curve): 50
[2]; Group 2, 50 mg lac i.p. daily day 8-14, day 8
  surviving animals (mortality curve): 42
[2]; Group 2, 50 mg lac i.p. daily day 8-14, day 9
  surviving animals (mortality curve): 32
[2]; Group 2, 50 mg lac i.p. daily day 8-14, day 10
  surviving animals (mortality curve): 21
[2]; Group 2, 50 mg lac i.p. daily day 8-14, day 11
  surviving animals (mortality curve): 17
[2]; Group 2, 50 mg lac i.p. daily day 8-14, day 12
  surviving animals (mortality curve): 12
[2]; Group 2, 50 mg lac i.p. daily day 8-14, day 13
  surviving animals (mortality curve): 5
[2]; Group 2, 50 mg lac i.p. daily day 8-14, day 14
  surviving animals (mortality curve): 0
[2]; Group 2, 50 rats, 50 mg L-aC i.p. daily day 8 to 14
  day after inoculation by which all animals died: ≤ 14 days
[2]; Group 3, 80 mg lac i.p. daily from day 8, day 0 transplant
  surviving animals (mortality curve): 25
[2]; Group 3, 80 mg lac i.p. daily from day 8, day 1
  surviving animals (mortality curve): 25
[2]; Group 3, 80 mg lac i.p. daily from day 8, day 2
  surviving animals (mortality curve): 25
[2]; Group 3, 80 mg lac i.p. daily from day 8, day 3
  surviving animals (mortality curve): 25
[2]; Group 3, 80 mg lac i.p. daily from day 8, day 4
  surviving animals (mortality curve): 25
[2]; Group 3, 80 mg lac i.p. daily from day 8, day 5
  surviving animals (mortality curve): 25
[2]; Group 3, 80 mg lac i.p. daily from day 8, day 6
  surviving animals (mortality curve): 25
[2]; Group 3, 80 mg lac i.p. daily from day 8, day 7
  surviving animals (mortality curve): 25
[2]; Group 3, 80 mg lac i.p. daily from day 8, day 8
  surviving animals (mortality curve): 12
[2]; Group 3, 80 mg lac i.p. daily from day 8, day 9
  surviving animals (mortality curve): 5
[2]; Group 3, 80 mg lac i.p. daily from day 8, day 10
  surviving animals (mortality curve): 0
[2]; Group 3, 25 rats, 80 mg L-aC i.p.
  time after 1st administration by which all animals died: ≤ 72 h
[2]; Group 3, 25 rats, 80 mg L-aC i.p. daily from day 8
  day after inoculation by which all animals died: ≤ 10 days
[2]; Group 4, 120 mg lac i.p. daily from day 8, day 0 transplant
  surviving animals (mortality curve): 25
[2]; Group 4, 120 mg lac i.p. daily from day 8, day 1
  surviving animals (mortality curve): 25
[2]; Group 4, 120 mg lac i.p. daily from day 8, day 2
  surviving animals (mortality curve): 25
[2]; Group 4, 120 mg lac i.p. daily from day 8, day 3
  surviving animals (mortality curve): 25
[2]; Group 4, 120 mg lac i.p. daily from day 8, day 4
  surviving animals (mortality curve): 25
[2]; Group 4, 120 mg lac i.p. daily from day 8, day 5
  surviving animals (mortality curve): 25
[2]; Group 4, 120 mg lac i.p. daily from day 8, day 6
  surviving animals (mortality curve): 25
[2]; Group 4, 120 mg lac i.p. daily from day 8, day 7
  surviving animals (mortality curve): 25
[2]; Group 4, 120 mg lac i.p. daily from day 8, day 8
  surviving animals (mortality curve): 0
[2]; Group 4, 25 rats, 120 mg L-aC i.p.
  time from 1st administration by which all animals died: ≤ 24 h
[2]; Group 4, 25 rats, 120 mg L-aC i.p. from day 8
  day after inoculation by which all animals died: ≤ 8 days
[2]; Group 5, 25 mg lac i.p. alternate days day 8-14, day 0 transplant
  surviving animals (mortality curve): 100
[2]; Group 5, 25 mg lac i.p. alternate days day 8-14, day 1
  surviving animals (mortality curve): 100
[2]; Group 5, 25 mg lac i.p. alternate days day 8-14, day 2
  surviving animals (mortality curve): 100
[2]; Group 5, 25 mg lac i.p. alternate days day 8-14, day 3
  surviving animals (mortality curve): 100
[2]; Group 5, 25 mg lac i.p. alternate days day 8-14, day 4
  surviving animals (mortality curve): 100
[2]; Group 5, 25 mg lac i.p. alternate days day 8-14, day 5
  surviving animals (mortality curve): 100
[2]; Group 5, 25 mg lac i.p. alternate days day 8-14, day 6
  surviving animals (mortality curve): 100
[2]; Group 5, 25 mg lac i.p. alternate days day 8-14, day 7
  surviving animals (mortality curve): 96
[2]; Group 5, 25 mg lac i.p. alternate days day 8-14, day 8
  surviving animals (mortality curve): 91
[2]; Group 5, 25 mg lac i.p. alternate days day 8-14, day 9
  surviving animals (mortality curve): 83
[2]; Group 5, 25 mg lac i.p. alternate days day 8-14, day 10
  surviving animals (mortality curve): 79
[2]; Group 5, 25 mg lac i.p. alternate days day 8-14, day 11
  surviving animals (mortality curve): 61
[2]; Group 5, 25 mg lac i.p. alternate days day 8-14, day 12
  surviving animals (mortality curve): 50
[2]; Group 5, 25 mg lac i.p. alternate days day 8-14, day 13
  surviving animals (mortality curve): 48
[2]; Group 5, 25 mg lac i.p. alternate days day 8-14, day 14
  surviving animals (mortality curve): 47
[2]; Group 5, 100 rats, 25 mg L-aC i.p. alternate days, day 15 after inoculation
  animals still alive: 47
[2]; Group 5, day 15 after inoculation
  ascites amount in survivors: remarkable reduction of the ascites amount
[2]; Group 5, day 28
  general condition of survivors: good health
[2]; Group 5, day 28 after inoculation
  ascitic fluid in survivors: complete disappearance of the ascitic fluid
[2]; Group 5 survivors, further 6 weeks
  deaths during further observation: no deaths occurred
[2]; of 47 Group 5 survivors, day 28 after inoculation
  animals still alive: 26
Yoshida tumour; 20 survivors (25 mg L-aC alternate days, 4 weeks), until day 14 after reinoculation
  ascites after reinoculation: no animals showed ascites
Yoshida tumour; second reinoculation
  outcome of repeated reinoculation: unsuccessfully
[3]; 2 patients completed follow-up, 6 still under study
  disease status at follow-up: free from the disease
[3]; 10 patients, oral 2 g/day 10 to 12 months after endoscopic resection, first and subsequent quarterly controls
  endoscopic control for tumour: all patients were negative for the tumour
[3]; oral 2 g/day, 10 to 12 months
  hematochemical parameters and side effects during treatment: Neither significant changes in the hematochemical parameters nor side effects of any kind were observed
